Measurements from patent US20220174981A1, “PROLINE TOLERANT TRIPEPTIDYL PEPTIDASES AND USES THEREOF” (DuPont Nutrition Biosciences APS, priority 2014, published 2022).

Experiments:
[1] = tested on: proline tolerant tripeptidyl peptidase (TRI083); assay: Hydrolysis of 33-mer gliadin peptide, LC-MS label-free quantification; format: biochemical; details: for Relative MS peak intensities: 24° C., pH 4.5
Protocol: The 33-mer of gliadin (alpha-2-gliadin) (aa56-88) H-[…]-OH (Zedira GmbH; D-64293 Darmstadt, Germany) C190H273N43O47 (MW=3911.46) (1 mg/ml; 0.26 mM) was incubated at 24° C. in the presence of proline tolerant tripeptidyl peptidase (0.01 mg/ml TRI083) in a total volume of 1000 ul buffer (pH=4.5) (the ratio substrate/enzyme 100:1, w/w). Aliquots (100 ul) of enzyme reaction were stopped with 20 ul 5% trifluoroacetic acid (TFA) after 0, 1, 3, 5, 10, 15 and 30 minutes, respectively. The samples were then transferred to new vials and analyzed on the LTQ Orbitrap mass spectrometer.
The LC-MS/MS data was manually annotated using GPMAW to calculate theoretical values of fragmentation.

H-Ala-Ala-Phe-pNA = assay: Low pH stability of tripeptidyl peptidases (pH 2.5, 40° C., 60 min), activity on H-Ala-Ala-Phe-pNA; format: biochemical; details: for OD410nm (Final): after pH 2.5, 40° C., 60 min; for OD410nm (Initial): without incubation at 40° C. for 60 min
Protocol: As requirements for utilization of the enzymes in feed for monogastric animals, the enzymes should be active at lower pH. For this reason the number of tripeptidyl peptidases has been tested with the reaction on synthetic substrate AAF (H-Ala-Ala-Phe-pNA. BACHEM, L-1095), at pH 2.5.
The tripeptide substrate AAF was prepared at 2.5 mg/ml in DMSO. Tripeptidyl peptidases were used as broth. The reaction mixture containing 2.5 μl enzyme and 90 μL glycine acetic acid-Tris buffer (each buffer components at 50 mM, pH 2.5) was prepared in 96 well incubation plates.
The incubation plate was mixed and incubated at 40° C. for 60 min. Then 50 μl 0.2M Mes-NaOH pH6.0 was added to each well, mixed at 600 rpm for 2 min. After that, 5 ul of the incubation mixture were taken to 96 well assay plate already filled with 85 μl 0.1M acetic acid buffer, pH4.0 and 5 μl 2.5 mg/ml AAF substrate solution.
The reaction mixture was stirred at 600 rpm for 2 min and read directly in a microplate reader (Molecular Devices, Denmark) at 410 nm at 30° C. every 30 second for 15 min.
To measure initial enzyme activity, similar procedure was performed except the step of enzyme incubation at 40° C. for 60 min.

Chain of proline tolerant tripeptidyl peptidase (TRI083) (as listed by the source): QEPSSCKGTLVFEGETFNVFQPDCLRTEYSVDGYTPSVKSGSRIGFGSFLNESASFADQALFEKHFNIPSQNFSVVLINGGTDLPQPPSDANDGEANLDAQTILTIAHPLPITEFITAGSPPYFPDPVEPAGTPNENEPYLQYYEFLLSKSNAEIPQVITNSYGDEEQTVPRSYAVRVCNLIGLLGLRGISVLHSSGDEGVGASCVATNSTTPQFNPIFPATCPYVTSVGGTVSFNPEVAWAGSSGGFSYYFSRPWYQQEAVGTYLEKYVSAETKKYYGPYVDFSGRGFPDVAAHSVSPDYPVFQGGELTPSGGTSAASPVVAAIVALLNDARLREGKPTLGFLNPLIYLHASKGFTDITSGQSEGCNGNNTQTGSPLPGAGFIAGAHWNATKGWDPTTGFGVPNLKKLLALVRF

Molecule: PYP
- Relative MS peak intensities ([1]; 0 min with TRI083 0.01 mg/ml): 4
- Relative MS peak intensities ([1]; 1 min with TRI083 0.01 mg/ml): 7
- Relative MS peak intensities ([1]; 3 min with TRI083 0.01 mg/ml): 12
- Relative MS peak intensities ([1]; 5 min with TRI083 0.01 mg/ml): 15
- Relative MS peak intensities ([1]; 10 min with TRI083 0.01 mg/ml): 28
- Relative MS peak intensities ([1]; 15 min with TRI083 0.01 mg/ml): 48
- Relative MS peak intensities ([1]; 30 min with TRI083 0.01 mg/ml): 101

Molecule: QPF
- Relative MS peak intensities ([1]; 0 min with TRI083 0.01 mg/ml): 0
- Relative MS peak intensities ([1]; 1 min with TRI083 0.01 mg/ml): 4
- Relative MS peak intensities ([1]; 3 min with TRI083 0.01 mg/ml): 55
- Relative MS peak intensities ([1]; 5 min with TRI083 0.01 mg/ml): 7
- Relative MS peak intensities ([1]; 10 min with TRI083 0.01 mg/ml): 129
- Relative MS peak intensities ([1]; 15 min with TRI083 0.01 mg/ml): 26
- Relative MS peak intensities ([1]; 30 min with TRI083 0.01 mg/ml): 100

Molecule: PQL
- Relative MS peak intensities ([1]; 0 min with TRI083 0.01 mg/ml): 8
- Relative MS peak intensities ([1]; 1 min with TRI083 0.01 mg/ml): 21
- Relative MS peak intensities ([1]; 3 min with TRI083 0.01 mg/ml): 30
- Relative MS peak intensities ([1]; 5 min with TRI083 0.01 mg/ml): 32
- Relative MS peak intensities ([1]; 10 min with TRI083 0.01 mg/ml): 42
- Relative MS peak intensities ([1]; 15 min with TRI083 0.01 mg/ml): 58
- Relative MS peak intensities ([1]; 30 min with TRI083 0.01 mg/ml): 100

Molecule: LQL
- Relative MS peak intensities ([1]; 0 min with TRI083 0.01 mg/ml): 3
- Relative MS peak intensities ([1]; 1 min with TRI083 0.01 mg/ml): 91
- Relative MS peak intensities ([1]; 3 min with TRI083 0.01 mg/ml): 88
- Relative MS peak intensities ([1]; 5 min with TRI083 0.01 mg/ml): 94
- Relative MS peak intensities ([1]; 10 min with TRI083 0.01 mg/ml): 94
- Relative MS peak intensities ([1]; 15 min with TRI083 0.01 mg/ml): 100
- Relative MS peak intensities ([1]; 30 min with TRI083 0.01 mg/ml): 100

Molecule: YPQPQLPYPQPQLPYPQPQPF [intermediate product of alpha-2-gliadin hydrolysis]
- Relative MS peak intensities ([1]; 0 min with TRI083 0.01 mg/ml): 79
- Relative MS peak intensities ([1]; 1 min with TRI083 0.01 mg/ml): 100
- Relative MS peak intensities ([1]; 3 min with TRI083 0.01 mg/ml): 52
- Relative MS peak intensities ([1]; 5 min with TRI083 0.01 mg/ml): 23
- Relative MS peak intensities ([1]; 10 min with TRI083 0.01 mg/ml): 23
- Relative MS peak intensities ([1]; 15 min with TRI083 0.01 mg/ml): 23
- Relative MS peak intensities ([1]; 30 min with TRI083 0.01 mg/ml): 20

Molecule: H-LQLQPFPQPQLPYPQPQLPYPQPQLPYPQPQPF-OH [Alpha-2 gliadin, 33-mer of gliadin (alpha-2-gliadin) (aa56-88), substrate, reference compound]
- Relative MS peak intensities ([1]; 0 min with TRI083 0.01 mg/ml): 100
- Relative MS peak intensities ([1]; 1 min with TRI083 0.01 mg/ml): 10
- Relative MS peak intensities ([1]; 3 min with TRI083 0.01 mg/ml): 0
- Relative MS peak intensities ([1]; 5 min with TRI083 0.01 mg/ml): 0
- Relative MS peak intensities ([1]; 10 min with TRI083 0.01 mg/ml): 0
- Relative MS peak intensities ([1]; 15 min with TRI083 0.01 mg/ml): 0
- Relative MS peak intensities ([1]; 30 min with TRI083 0.01 mg/ml): 0
- detectability of the intact peptide over time ([1]; TRI083 0.01 mg/ml, substrate/enzyme 100:1): not detectable after 3 min
- cleavage by proline tolerant tripeptidyl peptidase ([1]; proline in P3,P2,P1,P1′,P2′ and P3′ positions): consecutively into tri-peptides irrespective of a high proline content

Molecule: LPY
- Relative MS peak intensities ([1]; 0 min with TRI083 0.01 mg/ml): 5
- Relative MS peak intensities ([1]; 1 min with TRI083 0.01 mg/ml): 21
- Relative MS peak intensities ([1]; 3 min with TRI083 0.01 mg/ml): 46
- Relative MS peak intensities ([1]; 5 min with TRI083 0.01 mg/ml): 62
- Relative MS peak intensities ([1]; 10 min with TRI083 0.01 mg/ml): 90
- Relative MS peak intensities ([1]; 15 min with TRI083 0.01 mg/ml): 100
- Relative MS peak intensities ([1]; 30 min with TRI083 0.01 mg/ml): 94

B1: TRI053.1: tripeptidyl peptidase, SEQ ID No. 10/SEQ ID No. 37, used as broth (protein, listed as Aspergillus kawachii)
chain 1: VVHEKLAAVPSGWHHLEDAGSDHQISLSIALARKNLDQLESKLKDLSTPGESQYGQWLDQEEVDTLFPVASDKAVISWLRSANITHIARQGSLVNFATTVDKVNKLLNTTFAYYQRGSSQRLRTTEYSIPDDLVDSIDLISPTTFFGKEKTSAGLTQRSQKVDNHVAKRSNSSSCADTITLSCLKEMYNFGNYTPSASSGSKLGFASFLNESASYSDLAKFERLFNLPSQNFSVELINGGVNDQNQSTASLTEADLDVELLVGVGHPLPVTEFITSGEPPFIPDPDEPSAADNENEPYLQYYEYLLSKPNSALPQVISNSYGDDEQTVPEYYAKRVCNLIGLVGLRGISVLESSGDEGIGSGCRTTDGTNSTQFNPIFPATCPYVTAVGGTMSYAPEIAWEASSGGFSNYFERAWFQKEAVQNYLANHITNETKQYYSQFANFSGRGFPDVSAHSFEPSYEVIFYGARYGSGGTSAACPLFSALVGMLNDARLRAGKSTLGFLNPLLYSKGYKALTDVTAGQSIGCNGIDPQSDEAVAGAGIIPWAHWNATVGWDPVTGLGLPDFEKLRQLVLSL
chain 2: CADTITLSCLKEMYNFGNYTPSASSGSKLGFASFLNESASYSDLAKFERLFNLPSQNFSVELINGGVNDQNQSTASLTEADLDVELLVGVGHPLPVTEFITSGEPPFIPDPDEPSAADNENEPYLQYYEYLLSKPNSALPQVISNSYGDDEQTVPEYYAKRVCNLIGLVGLRGISVLESSGDEGIGSGCRTTDGTNSTQFNPIFPATCPYVTAVGGTMSYAPEIAWEASSGGFSNYFERAWFQKEAVQNYLANHITNETKQYYSQFANFSGRGFPDVSAHSFEPSYEVIFYGARYGSGGTSAACPLFSALVGMLNDARLRAGKSTLGFLNPLLYSKGYKALTDVTAGQSIGCNGIDPQSDEAVAGAGIIPWAHWNATVGWDPVTGLGLPDFEKLRQLVLS
modifications: used as fermentation broth
- OD410nm (Final) (H-Ala-Ala-Phe-pNA): 0.356
- OD410nm (Initial) (H-Ala-Ala-Phe-pNA): 0.345

B2: TRI050: tripeptidyl peptidase, SEQ ID No. 7/SEQ ID No. 34, used as broth (protein, listed as Fusarium graminearum)
chain 1: KSYSHHAEAPKGWKVDDTARVASTGKQQVFSIALTMQNVDQLESKLLDLSSPDSKNYGQWMSQKDVTTAFYPSKEAVSSVTKWLKSKGVKHYNVNGGFIDFALDVKGANALLDSDYQYYTKEGQTKLRTLSYSIPDDVAEHVQFVDPSTNFGGTLAFAPVTHPSRTLTERKNKPTKSTVDASCQTSITPSCLKQMYNIGDYTPKVESGSTIGFSSFLGESAIYSDVFLFEEKFGIPTQNFTTVLINNGTDDQNTAHKNFGEADLDAENIVGIAHPLPFTQYITGGSPPFLPNIDQPTAADNQNEPYVPFFRYLLSQKEVPAVVSTSYGDEEDSVPREYATMTCNLIGLLGLRGISVIFSSGDIGVGAGCLGPDHKTVEFNAIFPATCPYLTSVGGTVDVTPEIAWEGSSGGFSKYFPRPSYQDKAVKTYMKTVSKQTKKYYGPYTNWEGRGFPDVAGHSVSPNYEVIYAGKQSASGGTSAAAPVWAAIVGLLNDARFRAGKPSLGWLNPLVYKYGPKVLTDITGGYAIGCDGNNTQSGKPEPAGSGIVPGARWNATAGWDPVTGYGTPDFGKLKDLVLSF
chain 2: CQTSITPSCLKQMYNIGDYTPKVESGSTIGFSSFLGESAIYSDVFLFEEKFGIPTQNFTTVLINNGTDDQNTAHKNFGEADLDAENIVGIAHPLPFTQYITGGSPPFLPNIDQPTAADNQNEPYVPFFRYLLSQKEVPAVVSTSYGDEEDSVPREYATMTCNLIGLLGLRGISVIFSSGDIGVGAGCLGPDHKTVEFNAIFPATCPYLTSVGGTVDVTPEIAWEGSSGGFSKYFPRPSYQDKAVKTYMKTVSKQTKKYYGPYTNWEGRGFPDVAGHSVSPNYEVIYAGKQSASGGTSAAAPVWAAIVGLLNDARFRAGKPSLGWLNPLVYKYGPKVLTDITGGYAIGCDGNNTQSGKPEPAGSGIVPGARWNATAGWDPVTGYGTPDFGKLKDLVLS
modifications: used as fermentation broth
- OD410nm (Final) (H-Ala-Ala-Phe-pNA): 0.814
- OD410nm (Final) (H-Ala-Ala-Phe-pNA; listed as TRI050.3): 0.501
- OD410nm (Initial) (H-Ala-Ala-Phe-pNA): 0.895
- OD410nm (Initial) (H-Ala-Ala-Phe-pNA; listed as TRI050.3): 0.603
